Measured values taken from the supplement of paper PMC10307832.

Assays:
Experiment in all cases: relative viability (nuclei count vs DMSO), 5 days (fraction); higher = more cells survive
Palbociclib + Navitoclax = compound: CC(=O)c1c(C)c2cnc(Nc3ccc(N4CCNCC4)cn3)nc2n(C2CCCC2)c1=O [Palbociclib] + CC1(C)CCC(c2ccc(Cl)cc2)=C(CN2CCN(c3ccc(C(=O)NS(=O)(=O)c4ccc(N[C@H](CCN5CCOCC5)CSc5ccccc5)c(S(=O)(=O)C(F)(F)F)c4)cc3)CC2)C1 [Navitoclax] (partner 0.5 µM)
Procedure, shortened: (§1)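 One day after seeding in 1536-well plates, lung cancer cell lines were dosed by pin tool. Dosing was either single-drug or a fixed anchor-drug dose plus five library-drug doses (not always all listed) in √10 steps. After 5 days, nuclei were stained in one fix-and-stain step and counted on 4× images, and relative viability is the nuclei count of treated wells over that of vehicle wells, given as the median of duplicate plates.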

Palbociclib + Phenformin = compound: CC(=O)c1c(C)c2cnc(Nc3ccc(N4CCNCC4)cn3)nc2n(C2CCCC2)c1=O [Palbociclib] + N=C(N)NC(=N)NCCc1ccccc1 [Phenformin] (partner 250 µM)
Procedure, shortened: as §1

Palbociclib + Tozasertib = compound: CC(=O)c1c(C)c2cnc(Nc3ccc(N4CCNCC4)cn3)nc2n(C2CCCC2)c1=O [Palbociclib] + Cc1cc(Nc2cc(N3CCN(C)CC3)nc(Sc3ccc(NC(=O)C4CC4)cc3)n2)n[nH]1 [Tozasertib] (partner 0.1 µM)
Procedure, shortened: as §1

Palbociclib + AZD7762 = compound: CC(=O)c1c(C)c2cnc(Nc3ccc(N4CCNCC4)cn3)nc2n(C2CCCC2)c1=O [Palbociclib] + NC(=O)Nc1cc(-c2cccc(F)c2)sc1C(=O)N[C@H]1CCCNC1 [AZD7762] (partner 0.2 µM)
Procedure, shortened: as §1

| Cell Line | relative viability (Palbociclib + Navitoclax; first compound 0.01 µM) | relative viability (Palbociclib + Navitoclax; first compound 0.03162 µM) | relative viability (Palbociclib + Navitoclax; first compound 0.1 µM) | relative viability (Palbociclib + Navitoclax; first compound 0.3162 µM) | relative viability (Palbociclib + Navitoclax; first compound 1 µM) | relative viability (Palbociclib + Phenformin; first compound 0.01 µM) | relative viability (Palbociclib + Phenformin; first compound 0.03162 µM) | relative viability (Palbociclib + Phenformin; first compound 0.1 µM) | relative viability (Palbociclib + Phenformin; first compound 0.3162 µM) | relative viability (Palbociclib + Phenformin; first compound 1 µM) | relative viability (Palbociclib + Tozasertib; first compound 0.01 µM) | relative viability (Palbociclib + Tozasertib; first compound 0.03162 µM) | relative viability (Palbociclib + Tozasertib; first compound 0.1 µM) | relative viability (Palbociclib + Tozasertib; first compound 0.3162 µM) | relative viability (Palbociclib + Tozasertib; first compound 1 µM) | relative viability (Palbociclib + AZD7762; first compound 0.01 µM) | relative viability (Palbociclib + AZD7762; first compound 0.03162 µM) | relative viability (Palbociclib + AZD7762; first compound 0.1 µM) | relative viability (Palbociclib + AZD7762; first compound 0.3162 µM) | relative viability (Palbociclib + AZD7762; first compound 1 µM) |
| --- | --- | --- | --- | --- | --- | --- | --- | --- | --- | --- | --- | --- | --- | --- | --- | --- | --- | --- | --- | --- |
| UMC-11 | 0.326 | 0.326 | 0.23 | 0.257 | 0.223 | 0.303 | 0.278 | 0.292 | 0.292 | 0.24 | 0.197 | 0.187 | 0.202 | 0.22 | 0.208 |  |  |  |  |  |
| NCI-H1792 | 0.583 | 0.537 | 0.592 | 0.461 | 0.321 | 0.389 | 0.237 | 0.209 | 0.193 | 0.1 |  |  |  |  |  | 0.663 | 0.559 | 0.462 | 0.576 | 0.185 |
| RERF-LC-KJ | 0.87 | 0.8 | 1.26 | 1.32 | 1.11 | 0.419 | 0.414 | 0.418 | 0.459 | 0.485 | 0.467 | 0.446 | 0.392 | 0.536 | 0.534 | 0.966 | 0.661 | 0.932 | 0.948 | 0.996 |
| EKVX | 1.11 | 0.826 | 0.755 | 0.764 | 0.476 | 0.23 | 0.192 | 0.238 | 0.245 | 0.145 | 0.366 | 0.396 | 0.341 | 0.398 | 0.311 | 0.7 |  | 0.673 | 0.558 | 0.38 |
| NCI-H358 |  |  |  |  |  | 0.308 | 0.278 | 0.197 | 0.238 | 0.106 | 0.0961 | 0.087 | 0.096 | 0.0791 | 0.0679 | 0.535 | 0.417 | 0.347 | 0.29 | 0.213 |
| HCC-78 | 0.812 | 0.473 | 0.382 | 0.447 | 0.201 | 0.727 | 0.624 | 0.554 | 0.44 | 0.318 | 0.451 | 0.383 | 0.319 | 0.354 | 0.334 | 0.731 | 0.623 | 0.67 | 0.525 | 0.685 |
| LU99A | 0.789 | 0.677 | 0.759 | 0.601 | 0.522 | 0.851 | 0.507 | 0.688 | 0.837 | 0.602 | 0.314 | 0.268 | 0.254 | 0.308 | 0.25 | 0.405 |  | 0.277 | 0.34 | 0.27 |
| NCI-H2009 | 1.15 | 1.17 | 0.908 | 0.896 | 0.404 | 0.457 | 0.396 | 0.357 | 0.291 | 0.23 | 0.739 | 0.729 | 0.625 | 0.479 | 0.346 |  |  |  |  |  |
| NCI-H2405 | 0.866 |  | 0.574 | 0.729 | 0.722 | 0.387 | 0.344 | 0.327 | 0.36 | 0.317 | 0.75 | 0.651 | 0.663 | 0.574 | 0.509 | 0.666 | 0.78 | 0.726 | 0.62 | 0.383 |
